Results: ChEMBL document CHEMBL1201862, “PubChem BioAssay data set” (2004)
Active and inactive are the calls of the source.

Key:
[1] = molecular target: Polyadenylate-binding protein 1 (Homo sapiens, UniProt P11940); assay: PABP inhibition in translation initiation, SAR follow-up (AID 435018); type: functional
[2] = molecular target: Eukaryotic translation initiation factor 4H (Homo sapiens, UniProt Q15056); assay: inhibitors of translation initiation factor eIF4H – SAR follow-up (AID 435011); type: functional
[3] = molecular target: T1, Probable nicotinate-nucleotide adenylyltransferase (Staphylococcus aureus (strain N315), UniProt P65502); type: functional, Staphylococcus aureus subsp. aureus N315;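 on IC50 Mean: confirmatory dose-response retesting of NadD inhibitor hits first found in an ultra-high-throughput screen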
ORF 73 = ORF 73 (Human herpesvirus 8, UniProt O40947); assay: KSHV LANA DNA-binding disruption – biochemical, fluorescence polarization, cherry-picked samples, dose response (AID 504725); set-up: species or system Human gammaherpesvirus 8;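 further: fluorescence polarization of a labeled DNA duplex reporting LANA DNA binding; potency is for inhibitors that block LANA binding to the DNA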
[4] = molecular target: T2, Small ubiquitin-related modifier 1 (Homo sapiens, UniProt P63165); assay: SUMO1 protein-protein binding blockers, potency – biochemical, FRET, dose response (AID 624383); type: functional; conditions: read-out: IC50_Mean
[5] = molecular target: T1, Probable nicotinate-nucleotide adenylyltransferase; type: functional, Staphylococcus aureus subsp. aureus N315; conditions: read-out: IC50_Mean
[6] = molecular target: T3, Rac GTPase-activating protein 1 (Homo sapiens, UniProt Q9H0H5); assay: blockers of MgcRacGAP-driven Rac1 GTP hydrolysis – biochemical, ADP Hunter fluorescence, primary and confirmatory, confirmation (AID 624330); type: functional
T3 sequence (Q9H0H5 whole entry): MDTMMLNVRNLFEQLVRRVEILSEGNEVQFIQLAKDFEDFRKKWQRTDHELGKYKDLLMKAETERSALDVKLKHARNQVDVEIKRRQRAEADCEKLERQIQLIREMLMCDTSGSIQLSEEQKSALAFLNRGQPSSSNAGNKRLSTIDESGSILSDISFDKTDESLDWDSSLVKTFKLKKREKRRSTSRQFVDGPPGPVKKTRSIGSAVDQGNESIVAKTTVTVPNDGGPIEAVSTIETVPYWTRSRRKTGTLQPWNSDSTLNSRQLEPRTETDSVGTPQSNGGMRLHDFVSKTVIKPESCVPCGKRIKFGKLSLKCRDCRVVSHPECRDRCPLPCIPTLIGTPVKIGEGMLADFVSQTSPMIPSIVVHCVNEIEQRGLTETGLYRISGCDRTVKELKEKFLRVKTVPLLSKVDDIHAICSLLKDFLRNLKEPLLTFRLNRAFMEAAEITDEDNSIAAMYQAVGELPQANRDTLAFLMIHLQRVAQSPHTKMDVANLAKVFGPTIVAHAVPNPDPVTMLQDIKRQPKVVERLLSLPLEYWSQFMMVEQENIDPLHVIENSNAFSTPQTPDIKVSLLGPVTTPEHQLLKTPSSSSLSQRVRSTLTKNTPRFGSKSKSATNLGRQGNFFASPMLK

HeLa = assay: viability loss in HeLa cells – cell-based, 24 h, cherry-picked samples, cytotoxicity control, dose response (AID 504726); type: functional; conditions: Homo sapiens;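 further: potency for cytotoxicity as loss of luminescence signal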
[7] = molecular target: T2, Small ubiquitin-related modifier 1; assay: SUMO1 protein interaction blockers, potency – biochemical, fluorescence polarization, uHTS hits, dose response (AID 624382); type: functional; conditions: read-out: IC50_Mean
[8] = molecular target: T4, Kappa-type opioid receptor (Homo sapiens, UniProt P41145); type: functional
[9] = molecular target: T4, Kappa-type opioid receptor; type: functional; remark: listed apart in the source
Beta-galactosidase = Beta-galactosidase (Escherichia coli, UniProt Q8VNN2); type: functional
[10] = molecular target: Melanin-concentrating hormone receptor 1 (Homo sapiens, UniProt Q99705); assay: Late-stage fluorescence-based counterscreen for antagonists of the G-protein coupled receptor 7 (GPR7): cell-based dose response assay to identify antagonists of the melanin-concentrating hormone receptor 1 (MCHR1). [Related pubchem assays (depositor defined):AID1861, AID1880, AID1952, AID2148, AID2251, AID2257, AID485339]; type: functional;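 further: stimulated with 30 nM MCH peptide agonist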
[11] = molecular target: T5, Neuropeptides B/W receptor type 1 (Homo sapiens, UniProt P48145); assay: human NPBW1 receptor blockade, IC50 – cell-based, fluorescence, dose response, late-stage follow-up (AID 463251); type: functional
T5 sequence (P48145 whole entry): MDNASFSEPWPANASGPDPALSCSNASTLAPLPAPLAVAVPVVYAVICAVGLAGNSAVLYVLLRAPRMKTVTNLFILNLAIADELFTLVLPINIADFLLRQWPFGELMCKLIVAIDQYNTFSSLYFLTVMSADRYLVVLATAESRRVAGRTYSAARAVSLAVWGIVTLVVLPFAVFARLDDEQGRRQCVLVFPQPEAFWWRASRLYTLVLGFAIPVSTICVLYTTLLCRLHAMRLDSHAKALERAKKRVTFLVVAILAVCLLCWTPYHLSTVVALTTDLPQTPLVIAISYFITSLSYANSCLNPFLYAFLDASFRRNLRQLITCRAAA

[12] = molecular target: T4, Kappa-type opioid receptor; assay: SAR analysis of Antagonists of the Kappa Opioid Receptor (KOR) using an Image-Based Assay - Set 4. [Related pubchem assays (depositor defined):AID1777, AID1785]; type: functional
Mu-type opioid receptor [13] = molecular target: T6, Mu-type opioid receptor (Homo sapiens, UniProt P35372); assay: SAR Analysis of Antagonists of the MOR Receptor using an Image-Based Assay - Set 3. [Related pubchem assays (depositor defined):AID1777, AID1785, AID1786, AID1966, AID2133, AID2136, AID2284, AID2285, AID2420]; type: functional
[14] = molecular target: T4, Kappa-type opioid receptor; assay: SAR analysis of small molecule antagonists of the kappa opioid receptor via a luminescent beta-arrestin assay - Set 3. [Related pubchem assays (depositor defined):AID1777, AID1778, AID1785, AID1786, AID1966, AID2133, AID2136, AID2285, AID2495]; type: functional
[15] = molecular target: T7, Delta-type opioid receptor (Homo sapiens, UniProt P41143); assay: SAR Analysis of Antagonists of the DOR Receptor using an Image-Based Assay - Set 3. [Related pubchem assays (depositor defined):AID1777, AID1785]; type: functional
[16] = molecular target: T8, Tyrosine-protein phosphatase non-receptor type 7 (Homo sapiens, UniProt P35236); assay: redox-active compounds inhibiting HePTP phosphatase – biochemical, fluorescence, mechanism study (AID 2068); type: functional
T8 sequence (P35236 whole entry): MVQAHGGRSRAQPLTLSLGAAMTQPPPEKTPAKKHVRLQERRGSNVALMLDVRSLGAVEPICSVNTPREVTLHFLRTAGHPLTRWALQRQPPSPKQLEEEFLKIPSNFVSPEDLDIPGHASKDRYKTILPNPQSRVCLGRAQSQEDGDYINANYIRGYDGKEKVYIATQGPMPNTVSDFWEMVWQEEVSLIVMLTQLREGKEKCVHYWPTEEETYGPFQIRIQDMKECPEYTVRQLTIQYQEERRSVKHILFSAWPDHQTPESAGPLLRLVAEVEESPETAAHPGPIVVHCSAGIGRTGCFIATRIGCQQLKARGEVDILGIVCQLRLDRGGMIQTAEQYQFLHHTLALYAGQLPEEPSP

[17] = reduction of Shn3 3'UTR-driven luciferase in osteoblasts – cell-based, Clone20 osteoblasts, firefly luciferase, cherry-picked, dose response (AID 624132); type: functional;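 further: firefly luciferase luminescence from reporter carrying the Shn3 3'UTR in osteoblasts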
Protein Rev = Protein Rev (Human immunodeficiency virus type 1 group M subtype B (isolate HXB2)(HIV-1), UniProt P04618); assay: blockers of HIV Rev/RRE RNA complex – biochemical, fluorescence polarization, HIV-1, dose response (AID 434976); set-up: species or system Human immunodeficiency virus 1
[18] = non-specific 3'UTR reporter inhibition in Clone20-Shn3RL – cell-based, Renilla luciferase, cherry-picked, counter-screen for Shn3 inhibitor project, dose response (AID 624133); type: functional
[19] = molecular target: T9, Zinc finger protein mex-5 (Caenorhabditis elegans, UniProt Q9XUB2); assay: potency of MEX-5 RNA-binding blockers – biochemical, C. elegans, fluorescence polarization, dose response (AID 1960)
T9 sequence (Q9XUB2 whole entry): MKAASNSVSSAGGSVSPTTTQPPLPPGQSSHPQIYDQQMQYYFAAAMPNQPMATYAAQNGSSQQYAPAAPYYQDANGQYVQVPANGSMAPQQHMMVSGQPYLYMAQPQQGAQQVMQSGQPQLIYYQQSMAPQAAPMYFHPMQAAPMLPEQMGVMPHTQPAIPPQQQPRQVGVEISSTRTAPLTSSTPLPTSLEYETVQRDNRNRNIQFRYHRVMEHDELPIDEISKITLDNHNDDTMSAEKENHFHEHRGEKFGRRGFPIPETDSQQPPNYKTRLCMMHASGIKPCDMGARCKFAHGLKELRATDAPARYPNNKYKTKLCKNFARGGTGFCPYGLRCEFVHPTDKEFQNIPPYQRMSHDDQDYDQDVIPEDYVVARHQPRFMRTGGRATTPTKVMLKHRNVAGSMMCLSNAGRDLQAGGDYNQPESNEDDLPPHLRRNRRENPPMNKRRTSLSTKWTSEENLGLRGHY

[20] = molecular target: T10, RNA-binding protein pos-1 (Caenorhabditis elegans, UniProt G5EF15); assay: disruptors of C. elegans POS-1 RNA interaction – biochemical, fluorescence polarization, dose response (AID 1964);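 further: purified POS-1 fused to maltose binding protein made in E. coli; potency of compounds blocking POS-1 binding to fluorescent RNA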
T10 sequence (G5EF15 whole entry): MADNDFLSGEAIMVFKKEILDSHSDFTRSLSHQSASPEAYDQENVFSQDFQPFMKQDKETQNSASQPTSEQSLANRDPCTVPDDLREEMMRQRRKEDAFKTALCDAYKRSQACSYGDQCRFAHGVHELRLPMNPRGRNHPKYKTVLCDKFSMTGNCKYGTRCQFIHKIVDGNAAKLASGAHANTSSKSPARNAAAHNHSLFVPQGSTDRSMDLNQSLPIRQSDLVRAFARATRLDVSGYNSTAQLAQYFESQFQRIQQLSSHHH

[21] = molecular target: Female germline-specific tumor suppressor gld-1 (Caenorhabditis elegans, UniProt Q17339); assay: blockers of GLD-1/TGE RNA complex formation – biochemical, fluorescence polarization, C. elegans, dose response (AID 2802);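 further: fluorescence polarization of labeled TGE RNA bound by purified gld-1 protein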
J774.A1 = assay: Confirmation of image-based Screening Assay for Inhibitors of Phagocytosis. [Related pubchem assays (depositor defined):AID1029, AID1643]; type: functional, cell-based; conditions: Mus musculus
[22] = molecular target: T7, Delta-type opioid receptor; assay: DOR agonists, SAR follow-up, image-based (AID 2370); type: functional
[23] = molecular target: T4, Kappa-type opioid receptor; assay: kappa opioid receptor blockers, image-based, SAR follow-up (AID 2348); type: functional
[24] = molecular target: T4, Kappa-type opioid receptor; assay: kappa opioid receptor blockers, cell-based, luminescence, beta-arrestin, SAR follow-up (AID 2285); type: functional
Mu-type opioid receptor [25] = molecular target: T6, Mu-type opioid receptor; assay: mu opioid receptor activators, image-based, SAR follow-up (AID 2352); type: functional
[26] = molecular target: T7, Delta-type opioid receptor; assay: delta opioid receptor blockers – image-based, SAR follow-up (AID 2357); type: functional
Mu-type opioid receptor [27] = molecular target: T6, Mu-type opioid receptor; assay: mu opioid receptor blockers – image-based, SAR follow-up (AID 2420); type: functional;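 further: compounds added before stimulation of receptor with agonist DAMGO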
[28] = molecular target: T4, Kappa-type opioid receptor; assay: kappa opioid receptor activation potency – imaging, image-based, SAR follow-up (AID 2359); type: functional

T4 sequence (P41145 whole entry): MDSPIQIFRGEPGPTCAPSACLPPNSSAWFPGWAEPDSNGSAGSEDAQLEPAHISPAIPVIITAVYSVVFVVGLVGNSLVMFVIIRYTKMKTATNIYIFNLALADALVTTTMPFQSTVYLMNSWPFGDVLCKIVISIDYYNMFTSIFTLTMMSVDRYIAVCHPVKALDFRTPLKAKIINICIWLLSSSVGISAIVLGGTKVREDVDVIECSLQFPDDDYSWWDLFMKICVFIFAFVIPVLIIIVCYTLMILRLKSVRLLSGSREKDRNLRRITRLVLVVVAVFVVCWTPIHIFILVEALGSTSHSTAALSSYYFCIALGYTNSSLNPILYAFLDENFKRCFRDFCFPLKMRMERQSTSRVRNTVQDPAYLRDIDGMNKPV
T7 sequence (P41143 whole entry): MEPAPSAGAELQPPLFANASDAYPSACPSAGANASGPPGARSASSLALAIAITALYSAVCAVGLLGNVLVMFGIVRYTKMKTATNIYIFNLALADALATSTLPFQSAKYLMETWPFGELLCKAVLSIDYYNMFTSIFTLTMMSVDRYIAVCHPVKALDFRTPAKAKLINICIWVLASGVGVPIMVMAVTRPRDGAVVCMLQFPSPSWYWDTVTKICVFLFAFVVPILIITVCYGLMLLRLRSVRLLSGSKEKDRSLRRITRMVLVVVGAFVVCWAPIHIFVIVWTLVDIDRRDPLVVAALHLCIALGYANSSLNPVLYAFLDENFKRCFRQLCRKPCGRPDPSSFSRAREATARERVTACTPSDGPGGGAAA
T6 sequence (P35372 whole entry): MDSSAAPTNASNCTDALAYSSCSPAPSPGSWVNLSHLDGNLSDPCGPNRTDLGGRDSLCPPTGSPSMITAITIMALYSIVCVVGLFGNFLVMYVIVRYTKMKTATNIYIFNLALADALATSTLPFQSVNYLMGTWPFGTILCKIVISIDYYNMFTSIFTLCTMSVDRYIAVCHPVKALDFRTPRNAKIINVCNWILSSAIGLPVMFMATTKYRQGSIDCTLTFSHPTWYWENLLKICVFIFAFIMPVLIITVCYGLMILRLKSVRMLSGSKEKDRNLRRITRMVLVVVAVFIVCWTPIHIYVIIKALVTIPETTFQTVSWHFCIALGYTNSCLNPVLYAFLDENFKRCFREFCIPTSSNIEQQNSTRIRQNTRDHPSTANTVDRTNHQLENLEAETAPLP
T1 sequence (P65502 whole entry): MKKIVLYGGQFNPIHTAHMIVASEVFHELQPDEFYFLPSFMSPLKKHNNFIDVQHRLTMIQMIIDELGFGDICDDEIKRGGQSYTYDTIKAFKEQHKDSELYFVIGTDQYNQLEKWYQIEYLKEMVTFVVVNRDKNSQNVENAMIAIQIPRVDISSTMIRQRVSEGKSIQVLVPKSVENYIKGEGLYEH
T2 sequence (P63165 whole entry): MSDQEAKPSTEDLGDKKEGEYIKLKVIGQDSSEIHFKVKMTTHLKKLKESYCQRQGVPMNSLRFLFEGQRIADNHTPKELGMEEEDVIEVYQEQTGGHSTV
Chain of Beta-galactosidase (Q8VNN2 whole entry): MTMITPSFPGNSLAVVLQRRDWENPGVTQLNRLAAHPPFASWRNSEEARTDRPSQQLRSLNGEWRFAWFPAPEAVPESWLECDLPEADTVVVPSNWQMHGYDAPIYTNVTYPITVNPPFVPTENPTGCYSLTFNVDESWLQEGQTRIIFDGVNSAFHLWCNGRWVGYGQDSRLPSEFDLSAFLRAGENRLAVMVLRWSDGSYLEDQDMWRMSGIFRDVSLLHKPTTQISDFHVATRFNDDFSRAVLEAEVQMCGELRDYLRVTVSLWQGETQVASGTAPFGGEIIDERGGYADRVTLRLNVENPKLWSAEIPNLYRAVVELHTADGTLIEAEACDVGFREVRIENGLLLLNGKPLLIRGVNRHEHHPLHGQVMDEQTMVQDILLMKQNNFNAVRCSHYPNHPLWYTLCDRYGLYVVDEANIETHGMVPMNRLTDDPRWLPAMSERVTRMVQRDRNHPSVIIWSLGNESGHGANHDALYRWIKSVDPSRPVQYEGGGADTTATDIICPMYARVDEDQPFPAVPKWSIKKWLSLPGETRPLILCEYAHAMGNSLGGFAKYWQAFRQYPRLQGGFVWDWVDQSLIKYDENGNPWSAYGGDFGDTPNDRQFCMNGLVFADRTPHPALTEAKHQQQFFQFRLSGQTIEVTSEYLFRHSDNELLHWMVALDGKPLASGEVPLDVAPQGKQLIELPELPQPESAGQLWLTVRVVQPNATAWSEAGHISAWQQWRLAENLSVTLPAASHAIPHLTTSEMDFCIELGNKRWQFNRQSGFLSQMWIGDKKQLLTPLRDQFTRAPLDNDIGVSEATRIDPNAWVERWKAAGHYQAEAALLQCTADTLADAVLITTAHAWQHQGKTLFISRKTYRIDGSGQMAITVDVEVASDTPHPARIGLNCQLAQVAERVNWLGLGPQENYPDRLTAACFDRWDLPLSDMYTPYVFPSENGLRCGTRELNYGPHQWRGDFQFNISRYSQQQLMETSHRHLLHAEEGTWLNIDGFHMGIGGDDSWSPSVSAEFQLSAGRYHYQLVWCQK
Chain of Polyadenylate-binding protein 1 (P11940 whole entry): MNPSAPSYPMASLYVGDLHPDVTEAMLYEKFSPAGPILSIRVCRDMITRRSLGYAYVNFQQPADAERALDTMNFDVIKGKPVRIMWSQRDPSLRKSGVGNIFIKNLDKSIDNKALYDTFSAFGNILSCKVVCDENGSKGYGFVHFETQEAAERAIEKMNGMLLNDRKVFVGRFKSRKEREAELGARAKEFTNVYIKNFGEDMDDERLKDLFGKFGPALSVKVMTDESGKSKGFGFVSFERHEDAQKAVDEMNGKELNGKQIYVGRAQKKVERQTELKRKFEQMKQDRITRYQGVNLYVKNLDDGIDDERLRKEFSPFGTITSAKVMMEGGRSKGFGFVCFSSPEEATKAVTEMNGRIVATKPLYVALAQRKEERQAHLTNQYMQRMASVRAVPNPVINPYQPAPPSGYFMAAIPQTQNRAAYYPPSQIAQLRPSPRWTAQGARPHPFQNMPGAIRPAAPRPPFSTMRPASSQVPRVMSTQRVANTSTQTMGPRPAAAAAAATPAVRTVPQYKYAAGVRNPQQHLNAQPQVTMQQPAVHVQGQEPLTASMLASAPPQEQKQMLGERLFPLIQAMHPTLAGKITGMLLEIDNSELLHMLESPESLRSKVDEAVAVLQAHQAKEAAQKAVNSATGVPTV
Chain of ORF 73 (O40947 whole entry): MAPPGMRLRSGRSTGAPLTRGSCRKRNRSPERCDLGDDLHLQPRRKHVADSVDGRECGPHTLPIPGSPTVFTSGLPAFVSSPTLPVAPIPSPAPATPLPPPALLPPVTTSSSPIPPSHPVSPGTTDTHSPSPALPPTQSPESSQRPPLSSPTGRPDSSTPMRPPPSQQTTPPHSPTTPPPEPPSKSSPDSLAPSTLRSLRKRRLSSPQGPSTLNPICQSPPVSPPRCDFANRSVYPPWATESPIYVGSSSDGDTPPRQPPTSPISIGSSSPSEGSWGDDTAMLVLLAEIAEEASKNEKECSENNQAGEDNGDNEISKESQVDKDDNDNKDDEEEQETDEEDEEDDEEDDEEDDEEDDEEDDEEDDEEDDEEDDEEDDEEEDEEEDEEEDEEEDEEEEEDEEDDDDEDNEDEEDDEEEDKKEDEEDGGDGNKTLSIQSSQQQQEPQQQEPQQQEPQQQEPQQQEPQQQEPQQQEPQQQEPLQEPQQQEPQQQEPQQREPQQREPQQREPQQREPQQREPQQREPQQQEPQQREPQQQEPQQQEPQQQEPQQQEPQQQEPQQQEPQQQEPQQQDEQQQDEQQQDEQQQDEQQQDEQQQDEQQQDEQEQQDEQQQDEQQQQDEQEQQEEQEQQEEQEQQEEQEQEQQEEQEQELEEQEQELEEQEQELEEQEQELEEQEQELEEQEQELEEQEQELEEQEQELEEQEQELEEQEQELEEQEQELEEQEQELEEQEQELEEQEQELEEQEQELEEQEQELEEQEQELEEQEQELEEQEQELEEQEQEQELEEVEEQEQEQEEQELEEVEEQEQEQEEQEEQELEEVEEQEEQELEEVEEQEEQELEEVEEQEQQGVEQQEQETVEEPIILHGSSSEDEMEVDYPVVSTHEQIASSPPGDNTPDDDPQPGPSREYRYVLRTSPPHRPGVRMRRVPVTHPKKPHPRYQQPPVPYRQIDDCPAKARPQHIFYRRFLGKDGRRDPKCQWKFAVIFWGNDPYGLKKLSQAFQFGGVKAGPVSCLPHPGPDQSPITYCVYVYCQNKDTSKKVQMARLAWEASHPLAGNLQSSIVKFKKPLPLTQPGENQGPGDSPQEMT
Chain of Female germline-specific tumor suppressor gld-1 (Q17339 whole entry): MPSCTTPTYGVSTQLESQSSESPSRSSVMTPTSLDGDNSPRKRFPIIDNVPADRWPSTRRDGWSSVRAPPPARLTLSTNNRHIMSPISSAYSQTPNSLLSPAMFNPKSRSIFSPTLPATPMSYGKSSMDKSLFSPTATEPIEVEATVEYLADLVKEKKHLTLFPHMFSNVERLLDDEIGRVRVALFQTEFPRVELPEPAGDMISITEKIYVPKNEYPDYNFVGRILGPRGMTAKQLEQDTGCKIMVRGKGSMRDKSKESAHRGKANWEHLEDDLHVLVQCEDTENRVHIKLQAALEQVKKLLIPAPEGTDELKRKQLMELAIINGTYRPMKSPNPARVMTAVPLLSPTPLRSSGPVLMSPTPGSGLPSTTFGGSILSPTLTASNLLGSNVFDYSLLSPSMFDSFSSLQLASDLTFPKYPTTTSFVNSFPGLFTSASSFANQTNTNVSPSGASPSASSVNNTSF

Cc1ccccc1NC(=O)CSc1ccc(-c2ccco2)nn1
IC50 [1]: > 100 µM (inactive)
IC50 [2]: > 100 µM (inactive)

O=S(=O)(O)c1cc(O)c2ccc(Nc3ccccc3)cc2c1
IC50 [3]: 15.9 µM (active)
AC50 (ORF 73): 95.9 µM (active)
IC50 [4]: 2.16 µM (active)
IC50 [5]: 40.3 µM (active)
IC50 [6]: 40.9 µM (active)
AC50 (HeLa): 241 µM (active)
IC50 [7]: > 66.6 µM (inactive)

CC/C(=N\Nc1ccnc2cc(Cl)ccc12)c1ccc(O)cc1
IC50 [8]: 2460 nM
IC50 [9]: 4.88 µM (active)
EC50 (Beta-galactosidase): > 31.5 µM (inactive)

CC(=O)Nc1ccc(Oc2c(Cl)cnn(-c3ccc(C(C)C)cc3)c2=O)cc1
IC50 [10]: 6.3 µM (active)
IC50 [11]: 2.1 µM (active)

COc1ccc(CN(CCNC(=O)c2ccc(CNS(=O)(=O)c3ccccc3)cc2)C(C)C)cc1
IC50 [12]: 1.79 µM (active)
IC50 (Mu-type opioid receptor [13]): 14.3 µM (inactive)
IC50 [14]: 5.58 µM (active)
IC50 [15]: > 32 µM (inactive)

CCOC(=O)CCNC(=O)Nc1ccc2nc(-c3ccco3)c(-c3ccco3)nc2c1
IC50 [16]: 683 nM (active)

CCOC(=O)Cn1c(=O)c(-c2cc(Br)ccc2N)nc2ccccc21
AC50 [17]: 758 nM (active)
IC50 (Protein Rev): 4.53 µM (active)
AC50 [18]: 833 nM (active)
EC50 [19]: 26.1 µM (inconclusive)
EC50 [20]: > 300 µM (inconclusive)
IC50 [21]: 25.4 µM (inactive)

Cc1c(C=NNC(=O)C2COc3ccccc3O2)c2ccccc2n1C (stereo not drawn)
IC50 (J774.A1): > 25 µM (inactive)

Cc1ccc(C)c(N2CCN(CCCNC(=O)Cn3c(=O)c4cccn4c4cccnc43)CC2)c1
EC50 [22]: > 32 µM (inactive)
IC50 [23]: 20.5 µM (inactive)
IC50 [24]: > 10 µM (inactive)
EC50 (Mu-type opioid receptor [25]): > 32 µM (inactive)
IC50 [26]: > 32 µM (inactive)
IC50 (Mu-type opioid receptor [27]): > 32 µM (inactive)
EC50 [28]: > 32 µM (inactive)
